The values that follow are results of earlier work, collected in patent US9387169B2, “Rapamycin powders for pulmonary delivery” (Civitas Therapeutics, Inc., priority 2014, dated 2016).

For the data set the following is noted: amorphous form.

As to `CO[C@H]1C[C@@H]2CC[C@@H](C)[C@@](O)(O2)C(=O)C(=O)N2CCCC[C@H]2C(=O)O[C@H]([C@H](C)C[C@@H]2CC[C@@H](O)[C@H](OC)C2)CC(=O)[C@H](C)/C=C(\C)[C@@H](O)[C@@H](OC)C(=O)[C@H](C)C[C@H](C)/C=C/C=C/C=C/1C` [amorphous rapamycin, rapamycin], the chemical stability entry is reported as “extremely chemically unstable”.
